From US20180000085A1, “USE OF PICOLINAMIDE COMPOUNDS WITH FUNGICIDAL ACTIVITY” (DOW AGROSCIENCES LLC, priority 2014, published 2018)

Tests used:
Zymoseptoria tritici = assay: Leaf blotch of wheat (SEPTTR) disease control on wheat seedlings; type: in vivo; set-up: key to SEPTTR 1DP, HV activity at 100 ppm (% control rating) / SEPTTR 3DC, HV activity at 100 ppm (% control rating) / SEPTTR disease control, 1DP / SEPTTR disease control, 3DC / SEPTTR 1DP disease control rating, HV activity / SEPTTR 3DC disease control rating, HV activity / SEPTTR 3DC, LV activity at 125.1 g/H (% Control rating) / SEPTTR 1DP, LV activity at 125.1 g/H (% Control rating) / SEPTTR 1DP disease control rating, LV activity at 125.1 g/H / SEPTTR 3DC disease control rating, LV activity at 125.1 g/H / SEPTTR 3DC disease control rating, HV activity at 100 ppm / SEPTTR 1DP disease control rating, HV activity at 100 ppm / HV activity at 100 ppm SEPTTR 3DC (disease control rating) / HV activity at 100 ppm SEPTTR 1DP (disease control rating) / LV activity at 125.1 g/H SEPTTR 1DP (disease control rating) / LV activity at 125.1 g/H SEPTTR 3DC (disease control rating): A: > 80; B: ≤ 80; C: Not Tested; D: No Activity Observed in the Reported Assay; settings: for SEPTTR 1DP disease control rating, HV activity / SEPTTR 3DC disease control rating, HV activity: HV application at 100 ppm; for SEPTTR 1DP disease control rating, HV activity / LV activity at 125.1 g/H SEPTTR 1DP (disease control rating) / SEPTTR 1DP, LV activity at 125.1 g/H (% Control rating): 1 Day Protectant; for SEPTTR 1DP disease control rating, HV activity / SEPTTR 3DC disease control rating, HV activity / LV activity at 125.1 g/H SEPTTR 1DP (disease control rating) / LV activity at 125.1 g/H SEPTTR 3DC (disease control rating): wheat leaf blotch; for SEPTTR 3DC disease control rating, HV activity / LV activity at 125.1 g/H SEPTTR 3DC (disease control rating) / SEPTTR 3DC, LV activity at 125.1 g/H (% Control rating): 3 Day Curative; for LV activity at 125.1 g/H SEPTTR 1DP (disease control rating) / LV activity at 125.1 g/H SEPTTR 3DC (disease control rating) / SEPTTR 1DP, LV activity at 125.1 g/H (% Control rating) / SEPTTR 3DC, LV activity at 125.1 g/H (% Control rating): low volume application
Puccinia triticina = assay: Wheat brown rust (PUCCRT) disease control on wheat seedlings; type: in vivo; set-up: key to PUCCRT 3DC, HV activity at 100 ppm (% control rating) / PUCCRT disease control, 3DC / PUCCRT 1DP disease control rating, HV activity / PUCCRT 3DC disease control rating, HV activity / PUCCRT 3DC, LV activity at 125.1 g/H (% Control rating) / PUCCRT 1DP, LV activity at 125.1 g/H (% Control rating) / PUCCRT 3DC disease control rating, LV activity at 125.1 g/H / PUCCRT 1DP disease control rating, LV activity at 125.1 g/H / PUCCRT 3DC disease control rating, HV activity at 100 ppm / PUCCRT 1DP disease control rating, HV activity at 100 ppm / HV activity at 100 ppm PUCCRT 3DC (disease control rating) / LV activity at 125.1 g/H PUCCRT 1DP (disease control rating) / LV activity at 125.1 g/H PUCCRT 3DC (disease control rating): A: > 80; B: ≤ 80; C: Not Tested; D: No Activity Observed in the Reported Assay; settings: for PUCCRT 1DP disease control rating, HV activity / PUCCRT 3DC disease control rating, HV activity: HV application at 100 ppm; for PUCCRT 1DP disease control rating, HV activity / LV activity at 125.1 g/H PUCCRT 1DP (disease control rating) / PUCCRT 1DP, LV activity at 125.1 g/H (% Control rating): 1 Day Protectant; for PUCCRT 1DP disease control rating, HV activity / PUCCRT 3DC disease control rating, HV activity / LV activity at 125.1 g/H PUCCRT 1DP (disease control rating) / LV activity at 125.1 g/H PUCCRT 3DC (disease control rating): wheat brown rust; for PUCCRT 3DC disease control rating, HV activity / LV activity at 125.1 g/H PUCCRT 3DC (disease control rating) / PUCCRT 3DC, LV activity at 125.1 g/H (% Control rating): 3 Day Curative; for LV activity at 125.1 g/H PUCCRT 1DP (disease control rating) / LV activity at 125.1 g/H PUCCRT 3DC (disease control rating) / PUCCRT 1DP, LV activity at 125.1 g/H (% Control rating) / PUCCRT 3DC, LV activity at 125.1 g/H (% Control rating): low volume application

Row | SMILES | SEPTTR 1DP disease control rating, HV activity (Zymoseptoria tritici) | SEPTTR 3DC disease control rating, HV activity (Zymoseptoria tritici) | PUCCRT 1DP disease control rating, HV activity (Puccinia triticina) | PUCCRT 3DC disease control rating, HV activity (Puccinia triticina) | LV activity at 125.1 g/H SEPTTR 1DP (disease control rating) (Zymoseptoria tritici) | LV activity at 125.1 g/H SEPTTR 3DC (disease control rating) (Zymoseptoria tritici) | LV activity at 125.1 g/H PUCCRT 1DP (disease control rating) (Puccinia triticina) | LV activity at 125.1 g/H PUCCRT 3DC (disease control rating) (Puccinia triticina) | SEPTTR 1DP, LV activity at 125.1 g/H (% Control rating) (Zymoseptoria tritici) | SEPTTR 3DC, LV activity at 125.1 g/H (% Control rating) (Zymoseptoria tritici) | PUCCRT 1DP, LV activity at 125.1 g/H (% Control rating) (Puccinia triticina) | PUCCRT 3DC, LV activity at 125.1 g/H (% Control rating) (Puccinia triticina)
1 | COc1ccnc(C(=O)N[C@@H](C)C(=O)O[C@@H](C)[C@@H](Cc2ccccc2)Oc2ccccc2)c1O [Cmpd 345] | D | B (≤ 80) | A (> 80) | A (> 80) | – | – | – | – | – | – | – | –
2 | COc1ccnc(C(=O)N[C@@H](C)C(=O)O[C@@H](C)[C@H](Oc2cccc(Cl)c2)C(C)(C)C)c1OC(C)=O [Cmpd 1055] | – | – | – | – | B (≤ 80) | A (> 80) | A (> 80) | A (> 80) | – | – | – | –
3 | CCC[C@@H](Oc1ccc(C)cc1)[C@H](C)OC(=O)[C@H](C)NC(=O)c1nccc(OC)c1OC(C)=O [Cmpd 1060] | – | – | – | – | B (≤ 80) | B (≤ 80) | A (> 80) | A (> 80) | – | – | – | –
4 | CC[C@H](NC(=O)c1nccc(OC)c1OC(C)=O)C(=O)O[C@@H](C)[C@@H](COc1ccccc1)Oc1ccccc1 [Cmpd 489] | – | – | – | – | – | – | – | – | A (> 80) | A (> 80) | A (> 80) | A (> 80)
5 | COc1ccnc(C(=O)NC(C)C(=O)OC(C)COCc2ccccc2)c1OCOC(C)=O (stereo not shown) [Cmpd 520] | – | – | – | – | – | – | – | – | B (≤ 80) | D | B (≤ 80) | B (≤ 80)
6 | CC[C@@H](CCC(C)C)[C@H](OCC1CC1)[C@H](C)OC(=O)[C@H](C)NC(=O)c1nccc(OC)c1OC(C)=O [Cmpd 504] | – | – | – | – | – | – | – | – | B (≤ 80) | B (≤ 80) | A (> 80) | A (> 80)
7 | COc1ccnc(C(=O)NC(C)C(=O)OC(C)C(Oc2cccc3ccccc23)C(C)C)c1O (stereo not shown) [Cmpd 434] | A (> 80) | D | A (> 80) | D | – | – | – | – | – | – | – | –
8 | CCC(CC)[C@@H](Oc1cc(F)cc(Cl)c1)[C@H](C)OC(=O)[C@@H](NC(=O)c1nccc(OC)c1O)C(C)C [Cmpd 410] | B (≤ 80) | B (≤ 80) | A (> 80) | B (≤ 80) | – | – | – | – | – | – | – | –
9 | COc1cc(O[C@@H]([C@H](C)OC(=O)[C@H](C)NC(=O)c2nccc(OC)c2OC(C)=O)C(C)(C)C)ccc1Cl [Cmpd 1070] | – | – | – | – | B (≤ 80) | D | A (> 80) | A (> 80) | – | – | – | –
10 | COc1ccnc(C(=O)NC(C)C(=O)OC(C)C(Oc2cccc3ccccc23)C(C)C)c1O (stereo not shown) [Cmpd 397] | B (≤ 80) | B (≤ 80) | A (> 80) | A (> 80) | – | – | – | – | – | – | – | –
